We go through two compounds from BindingDB's records for patent US11566007 (Revolution Medicines, 2023).

Common to all, as to assay: Biochemical Assay
For one assay, the target named is GTPase KRas [G12V] (Homo sapiens, UniProt P01116, G12V). An excerpt: (§1) The purpose of this biochemical assay is to measure the ability of test compounds to covalently label nucleotide-loaded K-Ras isoforms. […] Analysis of raw data may be carried out using Waters MassLynx MS software, with % bound calculated from the deconvoluted protein peaks for labeled and unlabeled K-Ras.

The next assay deals with GTPase KRas [G12D] (Homo sapiens, UniProt P01116, G12D).
Description: as §1

A further assay concerns the target GTPase KRas [Q61H] (Homo sapiens, UniProt P01116, Q61H).
Description: as §1

A further assay deals with GTPase KRas [G12C] (Homo sapiens, UniProt P01116, G12C).
Description: as §1

GTPase KRas [G12V], sequence (P01116 whole entry G12V, canonical isoform): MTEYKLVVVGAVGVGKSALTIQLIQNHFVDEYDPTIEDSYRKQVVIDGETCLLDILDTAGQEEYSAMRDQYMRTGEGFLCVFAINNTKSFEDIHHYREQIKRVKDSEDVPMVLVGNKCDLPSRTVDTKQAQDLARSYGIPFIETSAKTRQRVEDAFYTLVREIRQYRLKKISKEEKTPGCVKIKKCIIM
GTPase KRas [G12D], sequence (P01116 whole entry G12D): as the sequence (P01116 whole entry G12V, canonical isoform) above, with V12D counted along it
GTPase KRas [Q61H], sequence (P01116 whole entry Q61H): as the sequence (P01116 whole entry G12V, canonical isoform) above, with V12G, Q61H counted along it
GTPase KRas [G12C], sequence (P01116 whole entry G12C): as the sequence (P01116 whole entry G12V, canonical isoform) above, with V12C counted along it

A word on the IC50: it is the point on the concentration scale where inhibition reaches its midpoint. Lower therefore signals higher potency. As to `C=CC(=O)N1CC[C@H](C(=O)N(C)[C@H](C(=O)N[C@H]2Cc3cc(O)cc(c3)-c3ccc4c(c3)c(c(-c3cc(F)cnc3COC)n4CC)CC(C)(C)COC(=O)[C@@H]3CCCN(N3)C2=O)C(C)C)C1` [US11566007, Example A82], the IC50 entry on GTPase KRas [G12V] is “in the range around 0.55 µM”.

As for `C=CC(=O)N1CC[C@H](C(=O)N(C)[C@H](C(=O)N[C@H]2Cc3cc(O)cc(c3)-c3ccc4c(c3)c(c(-c3ccncc3)n4C(C)(C)C#N)CC(C)(C)COC(=O)[C@@H]3CCCN(N3)C2=O)C(C)C)C1` [US11566007, Example A86], the IC50 entry was “in the range around 5.5 µM” against GTPase KRas [G12D], “in the range around 0.55 µM” against GTPase KRas [Q61H] and “in the range around 0.055 µM” against GTPase KRas [G12C].
